# Experimental data: US20250082781A1, “METHODS OF LOWERING BLOOD GLUCOSE AND TREATING TYPE 2 DIABETES BY ACTIVATION OF PDE4D3” (Salk Institute for Biological Studies, priority 2021, published 2025)
# Assays:
# 3T3-L1 adipocytes = assay: In vitro lipolysis assay (FFA release), 3T3-L1 adipocytes; type: cell-based
# Experimental: Differentiation of pre-adipocytes were based on previously published methods (Bunnell et al., 2008). Briefly, 3T3-L1 pre-adipocytes were grown to full confluence in DMEM, 10% FBS (GemCell, 100-500), 10 mM HEPES and antibiotic-antimycotic (full growth media). 2 days later, differentiation was induced by replacing the media with 1 μM dexamethasone, 1 μM rosiglitazone, 500 μM IBMX and 5 μg/ml insulin in full growth media 2 days later after reaching full confluence. Two days later media was replaced by differentiation induction media with 1 μM rosiglitazone and 5 μg/ml insulin for 4 days with media change after 2 days. Cells were kept in maintenance medium (full growth media with 5 μg/ml insulin) for 4 more days for full differentiation. For differentiation of mouse SVF derived adipocytes, the protocol was same except DMEM/F12 (10565018, ThermoFisher) was used as base media and initial differentiation induction media was kept for 3 days. For differentiation of human subcutaneous adipocytes, protocol and media from the manufacturer (C-12735, C-39437, Promocell) were used. Dexamethasone was omitted from the media in the last 3 days before performing experiments. Both mouse and human SVF derived adipocytes were differentiated in collagen coated plates (A1142802, ThermoFisher).
# For in vitro lipolysis assay, cells were washed with PBS and media were changed to full growth media 1 day before experiment. Cells were serum starved for 2 h and placed in KRBH buffer (30 mM HEPES, 120 mM NaCl, 4 mM KH2PO4, 1 mM MgSO4, 0.75 mM CaCl2), and 10 mM NaHCO3) with 2% fatty acid free BSA and 5 mM glucose. FGF1 was added 10 min before induction of lipolysis with 100 nM isoprotenol (ISO). Inhibitors were added 30 min prior to FGF1 treatment unless otherwise noted. Media were collected and cells were lysed in protein extraction buffer. FFAs were measured in the media using a commercial kit (Wako-NEFAHR2) and normalized to protein concentration. For ex vivo lipolysis, the assay was modified from a published protocol (Funicello et al., 2007). Briefly, approximately 0.1 gram of adipose tissue was excised, weighed and kept in cold PBS until treatment and control tissues were collected. Tissues were cut into small pieces and incubated in same KRBH buffer as described above for 4 h. FFAs were measured and normalized by the explant weights.
# blood glucose levels = assay: Blood glucose levels in ob/ob mice; type: in vivo, mouse
# Experimental: Mice were kept in 12 h light/dark cycle in a temperature-controlled environment. Mice had free access to food and water unless noted otherwise. C57/B6 mice background was used unless noted otherwise. C57BL/6J and ob/ob (000632-B6. Cg-Lepob/J) male mice were obtained from Jackson Laboratory. PDE4D knock-out mice (034588-UCD) were obtained from MMRRC. For diet-induced obesity (DIO) studies, mice were fed a high fat diet (HFD) (60% fat, F3282; Bio-Serv) for minimum of 12 weeks to induce insulin resistance when diet-induced obese model is used. Insulin levels and blood glucose levels were monitored to confirm insulin resistance. To generate adipose-specific FGFR1 deletion, adiponectin-cre mice (B6; FVB-Tg (Adipoq-cre)1Evdr/J; Stock: 010803) were crossed to Fgfr1 flox/flox (B6.129S4-Fgfr1tm5.1Sor/J; Stock: 00767) mice. For AAV mediated expression of target proteins in adipose tissue, 5×10E+11 genomic copies of AAV were injected via tail vein or retro-orbital route.
# Recombinant FGF1 (rFGF1) was dissolved in phosphate-buffered saline (PBS) at a concentration of 0.2 mg/ml and was injected subcutaneously at a 0.5 mg kg^−1 dose. Blood glucose was monitored at indicated time points after injection. For initial measurements (2-4 h) food was removed after injection to exclude any indirect effects stemming from anorexigenic effects of FGF1. PDE4 inhibitor roflumilast stock in DMSO was diluted at 1 mg/ml in 30% captisol, pH 10 and delivered to mice thorough oral gavage at 5 mg kg^−1 dose. PDE3 inhibitor cilostamide stock in DMSO was diluted at 2 mg/ml in 30% captisol and delivered through intraperitoneal injection at 10 mg kg^−1 dose.
# [1] = system: HSL phosphorylation at S660; assay: Western blot of pHSL-S660 in gWAT after injection; type: in vivo, mouse; conditions: 30 min after FGF1 injection 0.5 mg/kg
# Experimental: Tissues were lysed in cold lysis buffer (50 mM Tris, pH 7.5, 150 mM NaCl, 1% NP40, 0.5% NaDoc, 0.1% SDS, 5% glycerol, 1 mM EDTA, protease and phosphatase inhibitors (complete and PhosSTOP (Roche)) by homogenization by bead-beater for 30 s. Samples were cleared for 10 min at 18,000 g at 4° C. and the middle clear phase was transferred to new tubes. A second 30 min centrifugation was performed and the middle clear phase was transferred to new tubes. Five ul protein extract was used for BCA assay to determine protein concentration. Samples were boiled in Laemmli buffer. SDS-PAGE and blotting were performed using gradient gels and Trans-Blot Turbo Transfer System (Bio-Rad). Antibodies used were PDE4D (12918-1-AP, Proteintech), pHSL-660 (4126S, Cell signaling), HSL (4107S, Cell Signaling), tubulin (CP06, Millipore Sigma), and GFP (A01388, GenScript). PDE4D3-pS44 phospho-specific antibody was generated using PDE4D3-S44 FRRHpSWISFDVDNGTSAGR peptide (SEQ ID NO: 20) (Mackenzie et al., 2002) by Pocono Rabbit Farm, using 70-day rabbit antibody production protocol and purified via affinity purification. Primary antibodies were incubated for 2 h at room temperature (RT) or overnight (ON) at 4° C. Blots were developed using SuperSignal West Pico PLUS Chemiluminescent Substrate (ThermoFisher Scientific) and imaged with BioRad GelDoc system.
# cAMP = cAMP levels in 3T3-L1 adipocytes (ELISA, biosensor, CRE-Luc reporter); type: cell-based
# Experimental: (§1) 3T3-L1 cells were transduced with viral particles ([…]) in 24 well plates. Media was replaced after overnight incubation. 3-4 days after AAV infection, cells were treated as described for lipolysis assay. For cAMP analysis by biosensors, Downward Green cADDis cAMP Sensor (D0200G) and control mNeon Green (F0500G) produced in BacMam system was purchased from Montana Molecular. Brightfield and fluorescence images were taken every 10-20 min in I IncuCyte® Live-cell analysis system (Sartorius) and images were analyzed by IncuCyte® Analysis Software. High-resolution live cell imaging was performed with LSM 880 Airyscan microscope at 40× objective.
# [2] = system: perilipin-HSL co-localization; assay: Perilipin-GFP and HSL-mCherry co-localization in 3T3-L1 adipocytes; type: cell-based
# Experimental: as §1
substance,measurement,setting,value
"FGF1: Recombinant fibroblast growth factor 1 protein, dissolved in PBS, injected subcutaneously",FGF1 suppression of lipolysis under FGFR1 inhibition,3T3-L1 adipocytes; FGF1 100 ng/ml with FGFR1 inhibitor PD 173074 1 μM,blocked by FGFR1 inhibition
same,FGF1-induced suppression of lipolysis under PDE3B inhibition,3T3-L1 adipocytes; FGF1 100 ng/ml with PDE3 inhibitors (cilostamide or quazinone 10 μM),did not impair
same,anti-lipolytic activity of FGF1 with selective inhibitors of PDE4,3T3-L1 adipocytes; FGF1 100 ng/ml with roflumilast 2 μM or cilomulast 10 μM,blocked by selective inhibitors of PDE4
same,isoproterenol-induced lipolysis,"3T3-L1 adipocytes; dose response of FGF1, ISO 100 nM, 4 h",dose-dependently suppressed isoproterenol-induced lipolysis
same,"blood glucose, FGF1 co-administered with atglistatin","blood glucose levels; ad lib fed ob/ob mice, FGF1 0.5 mg/kg + atglistatin 120 mg/kg",no additive effects
same,blood glucose,"blood glucose levels; ad lib fed ob/ob mice, FGF1 0.5 mg/kg s.c. as single agent",robustly lowered blood glucose
same,FGF1-induced reduction in glucose levels in mice overexpressing PDE4D3,"blood glucose levels; ob/ob mice with adAAV-PDE4D3, FGF1 0.5 mg/kg",greater reduction in glucose levels
same,FGF1 glucose response in mice expressing the S44A mutant,"blood glucose levels; ob/ob mice with adAAV-PDE4D3 S44A, FGF1 0.5 mg/kg",indistinguishable from control mice
same,pHSL levels in gWAT,[1],decreased
same,isoproterenol-induced increases in cAMP and cAMP/PKA signaling,"cAMP; FGF1 pretreatment, ISO 100 nM",attenuated isoproterenol-induced increases in cAMP
same,FGF1-induced attenuation of isoproterenol-driven increase in cAMP with PDE4 inhibitor,"cAMP; live 3T3-L1 cells, cAMP biosensor, roflumilast 2 μM",lost
same,isoproterenol-induced co-localization of perilipin-GFP and HSL-mCherry,"[2]; FGF1 100 ng/ml pretreatment, ISO 100 nM",reduced the isoproterenol-induced co-localization of perilipin-GFP and HSL-mCherry
same,FGF1 effect on perilipin-HSL co-localization under PDE4 inhibition,"[2]; roflumilast 2 μM, PDE3 inhibition did not abrogate",abrogated the FGF1 effect
